Like-named read-outs stand apart in the source and are kept apart here.
What was measured:
Type in all cases: in vivo
[1] = system: Echinochloa crus-galli (ECHCG); test: Post-emergence action against weeds, greenhouse pot test, visual rating: Echinochloa crus-galli
Kochia scoparia (KCHSC) = test: Post-emergence action against weeds, greenhouse pot test, visual rating: Kochia scoparia
Eleusine indica (ELEIN) = test: Post-emergence action against weeds, greenhouse pot test, visual rating: Eleusine indica
Method: (§1) When the observed efficacies already exceed the formal sum total of the values of the tests with individual applications, they also exceed the expected value according to Colby, which is calculated using the formula below and is likewise regarded as an indication of synergism (cf. S. R. Colby; in Weeds 15 (1967) pp. 20 to 22):
(§2) where: • A=efficacy of the active ingredient (A) in % at an application rate of a [g a.i./ha]; • B=efficacy of the active ingredient (B) in % at an application rate of b [g a.i./ha]; • E^C=expected value of the effect of the combination (A)+(B) in % at the combined application rate a+b [g a.i./ha].
(§3) The observed values (E^A) from the experiments, given suitable low dosages, show an effect of the combinations exceeding the expected values according to Colby (E^C) (Δ).
(§4) Seeds of mono- and dicotyledonous weeds were placed in sandy loam in pots, covered with soil and grown in a greenhouse under good growth conditions (temperature, air humidity, water supply). Two to three weeks after sowing, the test plants were treated at the two- to four-leaf stage with the compositions of the invention. The compositions of the invention, formulated as spray powders or as emulsion concentrates, were sprayed onto the green parts of the plant in various dosages with an application rate equivalent to […] of water. After the test plants had been kept in the greenhouse under optimum growth conditions for 3 weeks, the activity of the preparations was rated visually in comparison to untreated controls.
(§5) 100% efficacy means complete control of the particular weed tested.
(§6) 0% efficacy means zero control of the particular weed tested.
(§7) Expected values according to Colby are reported under E.
(§8) The exceedance of the expected value E is given as Δ (=synergistic effect).
(§9) The rating period is reported in days after application (DAT).

Avena fatua (AVEFA) = test: Post-emergence action against weeds, greenhouse pot test, visual rating: Avena fatua; details: for pest or weed control at 4 g/ha: 4 g a.i./ha
[2] = system: Brachiaria platyfylla (BRAPP); test: Post-emergence action against weeds, greenhouse pot test, visual rating: Brachiaria platyfylla
Method: as §1, §2, §3, §4, §5, §6, §7, §8, §9

Centaurea cyanus (CENCY) = test: Post-emergence action against weeds, greenhouse pot test, visual rating: Centaurea cyanus
Method: as §1, §2, §3, §4, §5, §6, §7, §8, §9

Bidens pilosa (BIDPI) = test: Post-emergence action against weeds, greenhouse pot test, visual rating: Bidens pilosa
[3] = system: Pharbitis purpurea (PHBPU); test: Post-emergence action against weeds, greenhouse pot test, visual rating: Pharbitis purpurea; details: 21 DAT
Method: as §1, §2, §3, §4, §5, §6, §7, §8, §9

Lolium rigidum (LOLRI) = test: Post-emergence action against weeds, greenhouse pot test, visual rating: Lolium rigidum
[4] = system: Sorghum halepense (SORHA); test: Post-emergence action against weeds, greenhouse pot test, visual rating: Sorghum halepense
Method: as §1, §2, §3, §4, §5, §6, §7, §8, §9

[5] = Avena fatua, 240 h, 10 DAT, read-out: Herbicidal effect [%] on AVEFA 10 DAT

O=C(O)CNCP(=O)(O)O [Glyphosate, glyphosate]
Herbicidal effect [%] on ECHCG 10 DAT ([1]; 30 g a.i./ha): 20% | pest or weed control at 30 g/ha (Kochia scoparia (KCHSC); Bassia scoparia, post-emergence, 504 h, read-out: Herbicidal effect [%] on KCHSC 21 DAT): 0%

O=C(O)COc1ccc(Cl)cc1Cl [2,4-D]
Herbicidal effect [%] on ELEIN 10 DAT (Eleusine indica (ELEIN); 40 g a.i./ha): 10% | Herbicidal effect [%] on AVEFA 10 DAT (Avena fatua (AVEFA); 10 DAT, 40 g a.i./ha): 0% | Herbicidal effect [%] on BRAPP 10 DAT ([2]; 40 g a.i./ha): 0% | Herbicidal effect [%] on BRAPP 21 DAT ([2]; 40 g a.i./ha): 0% | Herbicidal effect [%] on CENCY 21 DAT (Centaurea cyanus (CENCY); 40 g a.i./ha): 75%

bicyclopyrone
Herbicidal effect [%] on ELEIN 21 DAT (Eleusine indica (ELEIN); 3 g a.i./ha): 30% | Herbicidal effect [%] on CENCY 10 DAT (Centaurea cyanus (CENCY); 3 g a.i./ha): 50% | Herbicidal effect [%] on BIDPI 21 DAT (Bidens pilosa (BIDPI); 3 g a.i./ha): 10%

CS(=O)(=O)c1cc(C(F)(F)F)ccc1C(=O)c1cnoc1C1CC1 [Isoxaflutole, isoxaflutole]
Herbicidal effect [%] on ECHCG 10 DAT ([1]; 4 g a.i./ha): 60% | Herbicidal effect [%] on ECHCG 21 DAT ([1]; 4 g a.i./ha): 40% | pest or weed control at 4 g/ha (Avena fatua (AVEFA); [5]): 30% | Herbicidal effect [%] on PHBPU 21 DAT ([3]; 4 g a.i./ha): 10% | pest or weed control at 4 g/ha (Kochia scoparia (KCHSC); Bassia scoparia, post-emergence, 504 h, 4 g a.i./ha, read-out: Herbicidal effect [%] on KCHSC 21 DAT): 30% | Herbicidal effect [%] on BIDPI 21 DAT (Bidens pilosa (BIDPI); 4 g a.i./ha): 40%

COC(=O)c1csc(C)c1S(=O)(=O)NC(=O)n1nc(OC)n(C)c1=O [Thiencarbazone-methyl]
Herbicidal effect [%] on LOLRI 21 DAT (Lolium rigidum (LOLRI); 0.33 g a.i./ha, 21 DAT): 88% | Herbicidal effect [%] on AVEFA 21 DAT (Avena fatua (AVEFA); 21 DAT, 0.33 g a.i./ha): 88% | Herbicidal effect [%] on PHBPU 21 DAT ([3]; 0.33 g a.i./ha): 40% | Herbicidal effect [%] on CENCY 21 DAT (Centaurea cyanus (CENCY); 0.33 g a.i./ha): 40%

C[n+]1ccc(-c2cc[n+](C)cc2)cc1 [Paraquat, paraquat]
pest or weed control at 40 g/ha (Lolium rigidum (LOLRI); Lolium rigidum, 504 h, read-out: Herbicidal effect [%] on LOLRI 21 DAT): 10% | pest or weed control at 40 g/ha (Eleusine indica (ELEIN); Eleusine indica, post-emergence, 240 h, read-out: Herbicidal effect [%] on ELEIN 10 DAT): 40% | pest or weed control at 40 g/ha (Eleusine indica (ELEIN); Eleusine indica, post-emergence, 504 h, read-out: Herbicidal effect [%] on ELEIN 21 DAT): 10%

CCc1cccc(C)c1N(C(=O)CCl)[C@@H](C)COC [S-Metolachlor, S-metolachlor]
Herbicidal effect [%] on ECHCG 21 DAT ([1]; 50 g a.i./ha): 30% | Herbicidal effect [%] on LOLRI 21 DAT (Lolium rigidum (LOLRI); 50 g a.i./ha, 21 DAT): 0% | Herbicidal effect [%] on ELEIN 10 DAT (Eleusine indica (ELEIN); 50 g a.i./ha): 10% | Herbicidal effect [%] on ELEIN 21 DAT (Eleusine indica (ELEIN); 50 g a.i./ha): 10% | Herbicidal effect [%] on SORHA 10 DAT ([4]; 50 g a.i./ha, 10 DAT): 10% | Herbicidal effect [%] on SORHA 21 DAT ([4]; 50 g a.i./ha): 10% | Herbicidal effect [%] on AVEFA 10 DAT (Avena fatua (AVEFA); 10 DAT, 50 g a.i./ha): 10% | Herbicidal effect [%] on PHBPU 21 DAT ([3]; 50 g a.i./ha): 10% | Herbicidal effect [%] on KCHSC 21 DAT (Kochia scoparia (KCHSC); 50 g a.i./ha): 10% | Herbicidal effect [%] on BRAPP 10 DAT ([2]; 50 g a.i./ha): 30% | Herbicidal effect [%] on BRAPP 21 DAT ([2]; 50 g a.i./ha): 30% | Herbicidal effect [%] on CENCY 10 DAT (Centaurea cyanus (CENCY); 50 g a.i./ha): 0% | Herbicidal effect [%] on CENCY 21 DAT (Centaurea cyanus (CENCY); 50 g a.i./ha): 10% | Herbicidal effect [%] on BIDPI 21 DAT (Bidens pilosa (BIDPI); 50 g a.i./ha): 20%

CS(=O)(=O)c1ccc(C(=O)C2C(=O)CCCC2=O)c([N+](=O)[O-])c1 [Mesotrione, mesotrione]
pest or weed control at 4 g/ha (Lolium rigidum (LOLRI); Lolium rigidum, 504 h, 4 g a.i./ha, 21 DAT, read-out: Herbicidal effect [%] on LOLRI 21 DAT): 0% | pest or weed control at 4 g/ha (Eleusine indica (ELEIN); Eleusine indica, post-emergence, 504 h, 4 g a.i./ha, read-out: Herbicidal effect [%] on ELEIN 21 DAT): 10% | pest or weed control at 4 g/ha (Avena fatua (AVEFA); [5]): 10% | Herbicidal effect [%] on KCHSC 10 DAT (Kochia scoparia (KCHSC); 4 g a.i./ha): 30% | pest or weed control at 4 g/ha ([2]; post-emergence, 504 h, 4 g a.i./ha, read-out: Herbicidal effect [%] on BRAPP 21 DAT): 0% | Herbicidal effect [%] on CENCY 21 DAT (Centaurea cyanus (CENCY); 4 g a.i./ha): 40%

O=C(Nc1ccc(F)cc1F)c1cccnc1Oc1cccc(C(F)(F)F)c1 [Diflufenican, diflufenican]
pest or weed control at 120 g/ha (Eleusine indica (ELEIN); Eleusine indica, post-emergence, 504 h, 120 g a.i./ha, read-out: Herbicidal effect [%] on ELEIN 21 DAT): 10% | Herbicidal effect [%] on SORHA 21 DAT ([4]; 120 g a.i./ha): 0% | pest or weed control at 120 g/ha (Avena fatua (AVEFA); Avena fatua, 240 h, 10 DAT, 120 g a.i./ha, read-out: Herbicidal effect [%] on AVEFA 10 DAT): 10%
